# Results reported in article doi:10.64898/2025.12.31.697154v2, “Two phytohormones synergistically induce parasitic weeds seed germination via KAI2d receptors” (biorxiv, 2026).
# How the values were obtained:
# OmKAI2d3–OmSMAX1D1M = test system: T1, OmKAI2d3–OmSMAX1D1M; test: TR-FRET, ligand-induced KAI2d–SMAX1 D1M interaction; type: biochemical, Orobanche minor; details: without rac-GR24; 300 min
# T1 construct: gene KAI2d3; KAI2d3 plus SMAX1 D1M domain only; ligand-induced complex in TR-FRET; borders and tags not given
# OmKAI2d9–OmSMAX1D1M = test system: T2, OmKAI2d9–OmSMAX1D1M; test: as above; type: biochemical, Orobanche minor; details: without rac-GR24; 300 min
# T2 construct: gene KAI2d9; KAI2d9 plus SMAX1 D1M domain only; ligand-induced complex in TR-FRET; borders and tags not given
# OmKAI2d10–OmSMAX1D1M = test system: T3, OmKAI2d10–OmSMAX1D1M; test: as above; type: biochemical, Orobanche minor; details: without rac-GR24; 300 min
# T3 construct: gene KAI2d10; KAI2d10 plus SMAX1 D1M domain only; ligand-induced complex in TR-FRET; borders and tags not given
# OmKAI2d3 = target: T4, OmKAI2d3; test: isothermal titration calorimetry; type: binding, Orobanche minor; details: suggested allosteric site
# T4 construct: gene KAI2d3; soluble recombinant protein
smiles,measurement,setting,value
CC/C=C\C[C@@H]1C(=O)C=C[C@@H]1CCCCCCCC(=O)O [cis-OPDA],EC50,OmKAI2d3–OmSMAX1D1M,217 µM
same,EC50,OmKAI2d9–OmSMAX1D1M,197 µM
same,EC50,OmKAI2d10–OmSMAX1D1M,104 µM
same,Kd,OmKAI2d3,19.8 µM
